Data as given in US20080262228A1, “Metabolites of 5-fluoro-8- quinoline and methods of preparation and uses thereof” (Wyeth, priority 2006, published 2008).
Where a name gives a salt, the structure may show the parent alone.

Assays:
[1] = Metabolite profiling in liver microsomes and S9; assay type: in vitro ADME, rat, dog, monkey, human; conditions: liver microsomes and S9, 10 μM COMPOUND I, 30 min; species letters not defined
Method: Microsomal incubations for metabolite profiling were similar to those described above for intrinsic clearance determination (see Table 1). Aliquots of COMPOUND I (10 μL), dissolved in DMSO:methanol (1:9), were added to a 96-well plate containing phosphate buffer, and MgCl2 and the liver microsomes at 37° C. using the same automation apparatus as for the stability study described hereinabove. The reactions were initiated by the addition of the UDPGA and NADPH generating system. The final incubation volume for all samples was 1 mL and the length of incubation was 30 min. […] Three 250 μL aliquots were transferred to a 96-well plate containing 900 μL acetonitrile to precipitate the protein. […] The samples were then reconstituted in 150 μL of 20% methanol in water. The three aliquots for each sample were pooled and analyzed by LC/MS.
S9 incubation buffer and cofactors were chosen to allow N-acetylation and carbamoyl glucuronidation in addition to oxidative and glucuronidation pathways possible in liver microsomes. Incubations of sulfamethazine and SCA-136 with liver S9 were used as positive controls for N-acetylation and carbamoyl glucuronidation, respectively. Following a 30 min. incubation, 750 μL from each sample were added to 900 μL acetonitrile. Following centrifugation and evaporation of the supernatant, the samples were reconstituted in 450 μL of 20% methanol in water for analysis by HPLC/UV and LC/MS (see below).
The HPLC system used for mass spectrometric analysis was an Agilent 1100 HPLC (Agilent Technologies, Palo Alto, Calif.) equipped with a binary pump and a diode array UV detector. The UV detector was set to monitor 190-400 nm. Separations were accomplished on a Luna C18 column (150×2.1 mm, 5 μm) (Phenomenex Incorporated, Torrance, Calif.).
The mass spectrometer used for metabolite characterization was a Finnigan LCQ Deca ion trap mass spectrometer (Thermo Electron Corp.). […] Full scan and data dependent MS2 and MS3 mass spectra were recorded. Finnigan Xcalibur software (version 1.3) was used for control of equipment and recording of data from UV and LC/MS analyses.
Chromatographic profiles of COMPOUND I (10 μM) metabolites in incubations with liver microsomes in the presence of NADPH are presented in FIG. 1. Chromatographic profiles of COMPOUND I (10 μM) metabolites in incubations with liver microsomes in the presence of NADPH and UDPGA are presented in FIG. 2. Chromatographic profiles of COMPOUND I (10 μM) metabolites in incubations with liver S9 in the presence of NADPH, UDPGA and acetyl coenzyme A (CoA) are presented in FIG. 3. In incubations containing NADPH, UDPGA and acetyl CoA, fourteen Phase I metabolites (M1, M6, M8, M12, M13, M14, M15, M16, M17, M18, M20, M21, M22 and M23) and six Phase II metabolites (M2, M3, M5, M7, M9 and M10) were observed. In incubations without cofactors, no metabolites were observed.
LC/MS analysis was conducted on extracts of mouse, rat, monkey and human liver microsomes and S9. The mass spectral data for the characterized COMPOUND I metabolites are discussed below.

human 5-HT1A receptor = target: T1, human 5-HT1A receptor (Homo sapiens, UniProt P08908); test: Forskolin-induced adenylate cyclase (cAMP) functional assay in h5-HT1A.CHO cells; assay type: cell-based
T1 construct: expressed in transfected cells
T1 sequence (P08908 1-422): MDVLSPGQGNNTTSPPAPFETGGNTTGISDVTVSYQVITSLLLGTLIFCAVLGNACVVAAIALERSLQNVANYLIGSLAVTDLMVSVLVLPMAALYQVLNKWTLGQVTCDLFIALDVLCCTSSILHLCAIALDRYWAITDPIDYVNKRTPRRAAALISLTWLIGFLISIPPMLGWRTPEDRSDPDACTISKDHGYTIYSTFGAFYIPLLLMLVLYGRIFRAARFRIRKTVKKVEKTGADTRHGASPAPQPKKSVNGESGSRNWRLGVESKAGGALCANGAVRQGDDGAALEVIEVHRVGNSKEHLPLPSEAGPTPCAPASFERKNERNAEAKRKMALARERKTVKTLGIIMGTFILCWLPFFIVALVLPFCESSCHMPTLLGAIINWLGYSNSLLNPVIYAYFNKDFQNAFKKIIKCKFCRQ
Method: A Ki value is reported. The in vitro functional activity of the compounds of this invention is determined by measuring the effect of the compound on forskolin-induced adenylate cyclase activity in the same cell line. 5-HT1A agonists, such as the full agonist 8-OH-DPAT, inhibit forskolin-induced adenylate cyclase activity, as measured by a reduction in cAMP levels. The compounds of this invention display agonist activity as shown by its ability to induce a decrease in cAMP levels. An EC50 value is reported and the maximum response of the test compound is reported as the percent of a full agonist response (the maximum response obtained with the full agonist 8-OH-DPAT=100%). This percent is expressed as an Emax value.
The PCR cloning of the human 5-HT1A receptor subtype from a human genomic library has been described previously (Chanda et al., Mol. Pharmacol., 43:516 (1993)). A stable Chinese hamster ovary cell line expressing the human 5-HT1A receptor subtype (h5-HT1A.CHO cells) was employed throughout this study. […]
Measurements can be performed as described in Dunlop, J. et al., supra. […] Functional activity is assessed by treating the cells with forskolin (1 uM final concentration) followed immediately by test compound (6 different concentrations) for an additional 10 min. at 37° C. […]

| SMILES | Species (in which the metabolite was characterized) [1] | EC50 (human 5-HT1A receptor; decrease of forskolin-induced cAMP, read-out: EC50 value for in vitro agonist activity) [nM] | Emax (human 5-HT1A receptor; percent of full agonist response (8-OH-DPAT=100%)) [%] |
| --- | --- | --- | --- |
| COc1cc(N2CCN(C3CCN(c4ccc(F)c5cccnc45)CC3)CC2)c2ncccc2c1 [COMPOUND I, 5-Fluoro-8-{4-[4-(6-methoxyquinolin-8-yl)piperazin-1-yl]piperidin-1-yl}quinoline] | R, D, M, H | – | – |
| Oc1cc(N2CCN(C3CCN(c4ccc(F)c5cccnc45)CC3)CC2)c2ncccc2c1 [Metabolite M21, 8-{4-[1-(5-fluoroquinolin-8-yl)piperidin-4-yl]piperazin-1-yl}quinolin-6-ol trihydrochloride] | R, D, M, H | 0.39 | 92 |
